From ChEMBL document CHEMBL1155922, “Epiboxidine and novel-related analogues: a convenient synthetic approach and estimation of their affinity at neuronal nicotinic acetylcholine receptor subtypes” (Bioorg Med Chem Lett, 2008)

Experiments:
[1] = molecular target: T1, Neuronal acetylcholine receptor; alpha4/beta2 (Rattus norvegicus, UniProt P09483+P12390); test: Displacement of [3H]epibatidine from alpha4beta2 nAChR in rat cortical membrane; type: cell membranes
[2] = molecular target: Neuronal acetylcholine receptor subunit alpha-7 (Rattus norvegicus, UniProt Q05941); test: Displacement of [125I]alpha-bungarotoxin from alpha7 nAChR in rat cortical membrane; type: cell membranes
Sequence of Neuronal acetylcholine receptor subunit alpha-7 (Q05941 whole entry): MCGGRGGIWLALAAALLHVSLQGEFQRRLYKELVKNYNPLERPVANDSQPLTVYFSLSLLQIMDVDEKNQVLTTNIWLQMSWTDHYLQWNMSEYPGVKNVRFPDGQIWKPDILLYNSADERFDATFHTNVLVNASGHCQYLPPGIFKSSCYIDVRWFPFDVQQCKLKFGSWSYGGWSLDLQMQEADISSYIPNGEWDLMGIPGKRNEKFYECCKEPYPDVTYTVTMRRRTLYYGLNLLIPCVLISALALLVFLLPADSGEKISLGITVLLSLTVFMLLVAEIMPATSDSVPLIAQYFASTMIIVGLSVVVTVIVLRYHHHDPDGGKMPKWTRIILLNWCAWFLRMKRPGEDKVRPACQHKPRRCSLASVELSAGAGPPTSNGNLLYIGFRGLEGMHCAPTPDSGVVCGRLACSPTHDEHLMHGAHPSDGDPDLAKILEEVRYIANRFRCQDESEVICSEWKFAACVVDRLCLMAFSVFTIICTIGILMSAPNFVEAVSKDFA

Rattus norvegicus = organism: Rattus norvegicus; test: Selectivity ratio of Ki for rat alpha4beta2 nAChR to Ki for rat alpha7 nAChR
[3] = molecular target: T2, Neuronal acetylcholine receptor; alpha4/beta2 (Homo sapiens, UniProt P17787+P43681); test: Displacement of [3H]cystisine from alpha4beta2 nAChR; type: protein-complex assay
T2 sequence (P17787 whole entry): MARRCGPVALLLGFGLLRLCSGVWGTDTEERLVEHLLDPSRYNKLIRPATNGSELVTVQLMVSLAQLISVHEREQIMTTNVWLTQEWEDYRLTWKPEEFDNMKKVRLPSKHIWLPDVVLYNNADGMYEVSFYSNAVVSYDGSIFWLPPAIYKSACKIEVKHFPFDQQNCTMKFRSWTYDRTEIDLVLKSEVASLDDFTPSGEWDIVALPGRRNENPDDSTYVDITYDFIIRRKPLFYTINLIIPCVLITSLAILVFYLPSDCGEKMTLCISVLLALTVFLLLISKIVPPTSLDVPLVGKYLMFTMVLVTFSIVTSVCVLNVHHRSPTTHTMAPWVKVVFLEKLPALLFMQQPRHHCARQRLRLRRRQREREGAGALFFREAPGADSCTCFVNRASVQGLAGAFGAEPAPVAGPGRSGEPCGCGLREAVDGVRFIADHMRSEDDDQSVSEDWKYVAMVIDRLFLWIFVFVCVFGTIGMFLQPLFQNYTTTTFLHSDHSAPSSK
T2 sequence (P43681 whole entry): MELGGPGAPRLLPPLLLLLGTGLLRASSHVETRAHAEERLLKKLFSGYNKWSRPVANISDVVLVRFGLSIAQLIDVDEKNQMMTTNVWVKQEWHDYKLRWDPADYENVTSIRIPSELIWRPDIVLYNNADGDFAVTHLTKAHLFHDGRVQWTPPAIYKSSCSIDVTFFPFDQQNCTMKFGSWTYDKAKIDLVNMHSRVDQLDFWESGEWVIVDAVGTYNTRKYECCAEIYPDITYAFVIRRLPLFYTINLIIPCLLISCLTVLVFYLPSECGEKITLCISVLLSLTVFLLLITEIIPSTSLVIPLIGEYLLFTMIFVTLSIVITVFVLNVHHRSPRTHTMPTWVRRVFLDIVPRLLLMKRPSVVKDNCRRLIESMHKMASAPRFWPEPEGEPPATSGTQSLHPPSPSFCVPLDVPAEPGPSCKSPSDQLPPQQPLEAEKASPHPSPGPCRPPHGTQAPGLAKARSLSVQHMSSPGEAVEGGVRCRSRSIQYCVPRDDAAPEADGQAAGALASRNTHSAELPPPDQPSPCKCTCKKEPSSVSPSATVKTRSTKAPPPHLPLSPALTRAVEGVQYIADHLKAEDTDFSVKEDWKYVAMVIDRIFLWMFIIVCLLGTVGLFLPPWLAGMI

[4] = molecular target: T1, Neuronal acetylcholine receptor; alpha4/beta2; test: Displacement of [3H]nicotine from alpha4beta2 nAChR in rat cerebral membrane; type: cell membranes
[5] = molecular target: T2, Neuronal acetylcholine receptor; alpha4/beta2; test: Binding affinity to alpha4beta2 nAChR; type: protein-complex assay

T1 sequence (P09483 whole entry): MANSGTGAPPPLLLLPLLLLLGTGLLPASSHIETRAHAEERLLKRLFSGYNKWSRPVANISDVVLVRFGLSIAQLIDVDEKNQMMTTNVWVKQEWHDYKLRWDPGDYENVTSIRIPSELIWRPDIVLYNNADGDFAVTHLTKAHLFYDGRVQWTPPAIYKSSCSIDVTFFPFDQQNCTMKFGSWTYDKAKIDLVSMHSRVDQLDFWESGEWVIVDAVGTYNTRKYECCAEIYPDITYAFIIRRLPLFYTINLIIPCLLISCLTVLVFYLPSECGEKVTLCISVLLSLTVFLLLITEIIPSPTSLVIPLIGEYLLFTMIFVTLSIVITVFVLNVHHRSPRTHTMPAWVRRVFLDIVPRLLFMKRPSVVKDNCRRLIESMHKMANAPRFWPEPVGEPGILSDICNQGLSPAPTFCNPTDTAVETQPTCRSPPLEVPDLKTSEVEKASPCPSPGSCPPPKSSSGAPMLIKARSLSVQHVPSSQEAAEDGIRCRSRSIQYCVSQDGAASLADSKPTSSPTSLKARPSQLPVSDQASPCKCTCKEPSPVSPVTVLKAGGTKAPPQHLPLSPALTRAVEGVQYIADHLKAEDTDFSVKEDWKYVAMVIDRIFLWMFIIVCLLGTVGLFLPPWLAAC
T1 sequence (P12390 whole entry): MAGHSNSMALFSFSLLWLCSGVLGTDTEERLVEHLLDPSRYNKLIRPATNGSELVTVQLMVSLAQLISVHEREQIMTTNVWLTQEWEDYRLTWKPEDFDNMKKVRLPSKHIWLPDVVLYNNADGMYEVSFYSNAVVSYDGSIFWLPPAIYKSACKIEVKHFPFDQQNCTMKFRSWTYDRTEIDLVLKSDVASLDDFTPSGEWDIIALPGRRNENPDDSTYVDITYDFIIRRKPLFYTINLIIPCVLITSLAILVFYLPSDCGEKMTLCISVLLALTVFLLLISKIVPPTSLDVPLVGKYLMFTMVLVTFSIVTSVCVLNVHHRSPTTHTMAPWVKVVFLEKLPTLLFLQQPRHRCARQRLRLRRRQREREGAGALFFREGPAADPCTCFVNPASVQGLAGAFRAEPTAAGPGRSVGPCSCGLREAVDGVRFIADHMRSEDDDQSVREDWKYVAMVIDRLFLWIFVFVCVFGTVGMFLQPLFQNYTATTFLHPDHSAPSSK

Cc1cc(C2=CC3CCC2N3)on1 (racemic)
Ki [1]: 50 nM | Ki [2]: 1600 nM | Ratio Ki (Rattus norvegicus): 32

Cc1cc([C@@H]2C[C@H]3CC[C@H]2N3)on1 (racemic) [ENDO-EPIBOXIDINE]
Ki [1]: 70 nM | Ki [2]: 230 nM

Cc1cc(C2=CC3CCC2N3C)on1 (racemic)
Ki [1]: 514 nM | Ki [2]: 394 nM

Cc1cc([C@H]2C[C@H]3CC[C@H]2N3)on1 (racemic) [EXO-EPIBOXIDINE]
Ki [3]: 1.33 nM | Ki [1]: 0.4 nM | Ki [2]: 6 nM | Ki [4]: 0.6 nM | Ki [5]: 0.46 nM | Ratio Ki (Rattus norvegicus): 15
